Experimental data from PMC5007552, “The hVps34‐SGK3 pathway alleviates sustained PI3K/Akt inhibition by stimulating mTORC1 and tumour growth” (The EMBO Journal, 2016).
“And” between values parts separate entries of the source, which are not always exact repeats. Identical values can stand only once.

System: ZR-75-1 cells
Test: NanoString human kinome mRNA quantification
Format: cell-based
Settings: for Normalised counts: single replicates
Text: Human mRNAs were hybridised to NanoString human kinome and control code sets, then subjected to quantification using NanoString software. […] To permit data compaction, and simple kinome‐wide comparisons, the fold changes are log2 transformed. […] Cell pellets were resuspended at a concentration of ~6,500 cells/μl in RLT buffer (Qiagen). […] For total copy numbers, triplicate normalised count values were averaged, and to calculate fold induction, means were divided by triplicate mean values from matched DMSO controls. P‐values were calculated using unpaired t‐test (GraphPad Prism software) by employing treated and control count data for each kinase mRNA.

## NC1(c2ccc(-c3nc4ccn5c(=O)[nH]nc5c4cc3-c3ccccc3)cc2)CCC1 [MK-2206]
CDK18 mRNA
  CDK18 normalised counts (replicates): 93.28 and 102.4 and 103.9
CDK19 mRNA
  CDK19 average normalised counts: 336.707
  CDK19 normalised counts (replicates): 340.52 and 347.39 and 322.21
CDK20 mRNA
  CDK20 average normalised counts: 89.7167
  CDK20 normalised counts (replicates): 106.01 and 80.68 and 82.46
CDKL1 mRNA
  CDKL1 average normalised counts: 1
  CDKL1 normalised counts (replicates): 1
CDKL2 mRNA
  CDKL2 average normalised counts: 5.853
  CDKL2 normalised counts (replicates): 6.93 and 5.97 and 4.66
CDKL3 mRNA
  CDKL3 average normalised counts: 93.1667
  CDKL3 normalised counts (replicates): 98.74 and 82.42 and 98.34
CDKL4 mRNA
  CDKL4 average normalised counts: 49.8833
  CDKL4 normalised counts (replicates): 49.65 and 57.23 and 42.77
CDKL5 mRNA
  CDKL5 average normalised counts: 46.4467
  CDKL5 normalised counts (replicates): 46.93 and 52.02 and 40.39
CHEK1 mRNA
  CHEK1 average normalised counts: 416.797
  CHEK1 normalised counts (replicates): 440.51 and 390.82 and 419.06
CHEK2 mRNA
  CHEK2 average normalised counts: 813.71
  CHEK2 normalised counts (replicates): 824.09 and 812.16 and 804.88
CHUK mRNA
  CHUK average normalised counts: 732.773
  CHUK normalised counts (replicates): 715.01 and 761.78 and 721.53
CIT mRNA
  CIT average normalised counts: 394.403
  CIT normalised counts (replicates): 393.24 and 389.96 and 400.01
CLK1 mRNA
  CLK1 average normalised counts: 994.453
  CLK1 normalised counts (replicates): 974.07 and 1043.25 and 966.04
CLK2 mRNA
  CLK2 average normalised counts: 1169.5
  CLK2 normalised counts (replicates): 1152.23 and 1182.25 and 1174.03
CLK3 mRNA
  CLK3 average normalised counts: 710.143
  CLK3 normalised counts (replicates): 731.38 and 705.31 and 693.74
CLK4 mRNA
  CLK4 average normalised counts: 709.387
  CLK4 normalised counts (replicates): 719.56 and 687.07 and 721.53
COL4A3BP mRNA
  COL4A3BP average normalised counts: 420.653
  COL4A3BP normalised counts (replicates): 415.06 and 433.39 and 413.51
CPNE3 mRNA
  CPNE3 normalised counts (replicates): 2313.35
CSF1R mRNA
  CSF1R average normalised counts: 1
  CSF1R normalised counts (replicates): 1
CSK mRNA
  CSK average normalised counts: 629.517
  CSK normalised counts (replicates): 633.21 and 603.67 and 651.67
CSNK1A1L mRNA
  CSNK1A1L average normalised counts: 2.067
  CSNK1A1L normalised counts (replicates): 4.2 and 1 (2×)
CSNK1A1 mRNA
  CSNK1A1 average normalised counts: 854.287
  CSNK1A1 normalised counts (replicates): 855.9 and 833.01 and 873.95
CSNK1D mRNA
  CSNK1D average normalised counts: 6324.07
  CSNK1D normalised counts (replicates): 6300.6 and 6273.94 and 6397.68
CSNK1E mRNA
  CSNK1E average normalised counts: 1485.08
  CSNK1E normalised counts (replicates): 1520.36 and 1448.08 and 1486.81
CSNK1G1 mRNA
  Average normalised counts: 1243.9
  Normalised counts: 1266.76 and 1245.67 and 1219.28
CSNK1G2 mRNA
  Average normalised counts: 674.087
  Normalised counts: 671.38 and 671.43 and 679.45
CSNK1G3 mRNA
  Average normalised counts: 1032.23
  Normalised counts: 1024.97 and 1049.33 and 1022.4
CSNK2A1 mRNA
  Average normalised counts: 568.443
  Normalised counts: 546.86 and 575.87 and 582.6
CSNK2A2 mRNA
  Average normalised counts: 157.413
  Normalised counts: 146.91 and 157.13 and 168.2
DAPK1 mRNA
  Average normalised counts: 21.41
  Normalised counts: 22.38 and 18.13 and 23.72
DAPK2 mRNA
  Average normalised counts: 44.4967
  Normalised counts: 37.84 and 52.88 and 42.77
DCLK1 mRNA
  Average normalised counts: 64.6967
  Normalised counts: 61.47 and 58.1 and 74.52
DCLK2 mRNA
  Average normalised counts: 1
  Normalised counts: 1
DCLK3 mRNA
  Average normalised counts: 1
  Normalised counts: 1
DDR1 mRNA
  Normalised counts: 2268.77
DDR2 mRNA
  Average normalised counts: 24.12
  Normalised counts: 24.2 and 26.82
DMPK mRNA
  Average normalised counts: 79.4267
  Normalised counts: 89.65 and 78.08 and 70.55
DSTYK mRNA
  Average normalised counts: 288.937
  Normalised counts: 315.98 and 310.3
DYRK1A mRNA
  Average normalised counts: 1263.91
  Normalised counts: 1248.58 and 1277.81 and 1265.33
DYRK1B mRNA
  Average normalised counts: 113.827
  Normalised counts: 104.19 and 111.96 and 125.33
DYRK2 mRNA
  Average normalised counts: 852.053
  Normalised counts: 855.9 and 810.43 and 889.83
DYRK3 mRNA
  Average normalised counts: 83.6267
  Normalised counts: 80.56 and 90.24 and 80.08
DYRK4 mRNA
  Average normalised counts: 50.6933
  Normalised counts: 52.38 and 53.75 and 45.95
EEF2K mRNA
  Average normalised counts: 449.027
  Normalised counts: 425.05 and 457.72 and 464.31
EGFR mRNA
  Average normalised counts: 78.07
